Measured values published in patent US7622481B2, “Antibacterial compounds” (priority 2003, dated 2009).
Where a name gives a salt, the structure may show the parent alone.

Experiment: MIC of test compounds against various organisms
Assay type: cell-based
Conditions: not given
Description: The MIC (μg/ml) of test compounds against various organisms was determined including:
S. epidermidis CL7, S. aureus WCUH29, S. pneumoniae 1629, S. pyogenes CN10, H. influenzae ATCC 49247, E. faecalis 2, M. catarrhalis Ravasio, E. coli 7623.
For `COc1ccc2nccc(NC(=O)[C@@H]3CC[C@@H](NCc4nc5c(cc4F)SCC(=O)N5)[C@@H](F)C3)c2n1` [Example 32, (1R,3S,4R)-3-Fluoro-4[(7-fluoro-3-oxo-3,4-dihydro-2H-pyrido[3,2-b][1,4]thiazin-6-ylmethyl)-amino]-cyclohexanecarboxylic acid (6-methoxy-[1,5]naphthyridin-4-yl)-amide dihydrochloride], the MIC was no more than 2 µg/mL.
Compound `CO[C@@H]1C[C@H](C(=O)Nc2cccc3ccc(C)nc23)CC[C@H]1NCc1cc2c(cn1)OCCO2` [Example 39, (1R,3R,4R)-4-[(2,3-Dihydro-[1,4]dioxino[2,3-c]pyridin-7-ylmethyl)-amino]-3-methoxy-cyclohexanecarboxylic acid (2-methyl-quinolin-8-yl)-amide dihydrochloride] has an MIC of no more than 2 µg/mL.
`COc1ccc2nccc(NC(=O)[C@@H]3CC[C@@H](NCc4ccc5c(n4)NC(=O)CO5)[C@@H](F)C3)c2n1` [Example 31, (1R,3S,4R)-3-Fluoro-4-[(3-oxo-3,4-dihydro-2H-pyrido[3,2-b][1,4]oxazin-6-ylmethyl)-amino]-cyclohexanecarboxylic acid (6-methoxy-[1,5]naphthyridin-4-yl)-amide dihydrochloride] gave an MIC of no more than 2 µg/mL.

Same assay, conditions: versus all these organisms (panel of 8 strains); read-out: MIC
In the case of `COc1ccc2cccc(NC(=O)[C@]3(O)CC[C@@H](NCc4nc5c(cc4F)SCC(=O)N5)CC3)c2n1` [Example 23, t-4-[(7-Fluoro-3-oxo-3,4-dihydro-2H-pyrido[3,2-b][1,4]thiazin-6-ylmethyl)-amino]-1-hydroxy-r-cyclohexanecarboxylic acid (2-methoxy-quinolin-8-yl)-amide dihydrochloride], the MIC is reported as no more than 8 µg/mL.
In the case of `COc1ccc2cccc(NC(=O)[C@@H]3CC[C@@H](NCc4ccc5c(n4)NC(=O)CS5)[C@H](O)C3)c2n1` [Example 20, (1R,3R,4R)-3-Hydroxy-4-[(3-oxo-3,4-dihydro-2H-pyrido[3,2-b)[1,4]thiazin-6-ylmethyl)-amino]-cyclohexanecarboxylic acid (2-methoxy-quinolin-8-yl)-amide dihydrochloride], the MIC is reported as no more than 2 µg/mL.
Compound `N#Cc1ccc2cccc(NC(=O)[C@H]3CC[C@H](NCc4ccc5c(n4)NC(=O)CO5)[C@H](O)C3)c2n1` [Example 13, (1S,3R,4S)-3-Hydroxy-4-[(3-oxo-3,4-dihydro-2H-pyrido[3,2-b][1,4]oxazin-6-ylmethyl)-amino]-cyclohexanecarboxylic acid (2-cyano-quinolin-8-yl)-amide hydrochloride] has an MIC of no more than 2 µg/mL.
`Cc1ccc2cccc(NC(=O)[C@H]3CC[C@H](NCc4cc5c(cn4)OCCO5)CC3)c2n1` [Example 36, t-4-[(2,3-Dihydro-[1,4]dioxino[2,3-c]pyridin-7-ylmethyl)-amino]-cyclohexanecarboxylic acid (2-methyl-quinolin-8-yl)-amide dihydrochloride] showed an MIC of no more than 8 µg/mL.
`COc1ccc2cccc(NC(=O)[C@]3(O)CC[C@@H](NCc4ccc5c(n4)NC(=O)CS5)CC3)c2n1` [Example 5, 1-Hydroxy-t-4-[(3-oxo-3,4-dihydro-2H-pyrido[3,2-b][1,4]thiazin-6-ylmethyl)-amino]-r-cyclohexanecarboxylic acid (2-methoxy-quinolin-8-yl)-amide] gave an MIC of no more than 2 µg/mL.
`Cc1cnc2cccc(NC(=O)[C@]3(O)CC[C@@H](NCc4cc5c(cn4)OCCO5)CC3)c2n1` [Example 42, t-4-[(2,3-Dihydro[1,4]dioxino[2,3-c]pyridin-7-ylmethyl)amino]-1-hydroxy-N-(3-methyl-5-quinoxalinyl)-r-cyclohexanecarboxamide dihydrochloride] gave an MIC of no more than 8 µg/mL.
Compound `O=C1CSc2ccc(CN[C@H]3CC[C@](O)(C(=O)Nc4ccnc5ccsc45)CC3)nc2N1` [Example 1, 1 -Hydroxy-t-4-[(3-oxo-3,4-dihydro-2H-pyrido[3,2-b][1 ,4]thiazin-6-ylmethyl) -amino]-r-cyclohexanecarboxylic acid thieno[3,2-b]pyridin-7-ylamide dihydrochioride] has an MIC of no more than 8 µg/mL.
With `N#Cc1ccc2nccc(NC(=O)[C@]3(O)CC[C@@H](NCc4ccc5c(n4)NC(=O)CS5)CC3)c2c1` [Example 40, 1-Hydroxy-t-4-[(3-oxo-3,4-dihydro-2H-pyrido[3,2-b][1,4]thiazin-6-ylmethyl)-amino]-r-cyclohexanecarboxylic acid (6-cyano-quinolin-4-yl)-amide dihydrochloride] the MIC was no more than 2 µg/mL.
With `COc1nccc2cccc(NC(=O)[C@]3(O)CC[C@@H](NCc4ccc5c(n4)NC(=O)CS5)CC3)c12` [Example 27, 1-Hydroxy-t-4-[(3-oxo-3,4-dihydro-2H-pyrido[3,2-b][1,4]thiazin-6-ylmethyl)-amino]-r-cyclohexanecarboxylic acid (1-methoxy-isoquinolin-8-yl)-amide hydrochloride] the MIC was no more than 8 µg/mL.
For `COc1ccc2cccc(NC(=O)[C@]3(O)CC[C@@H](NCc4ccc5c(n4)NCCS5)CC3)c2n1` [Example 6, 4-[(3,4-Dihydro-2H-pyrido[3,2-b][1,4]thiazin-6-ylmethyl)-amino]-1-hydroxy-cyclohexanecarboxylic acid (2-methoxy-quinolin-8-yl)-amide], the MIC was no more than 8 µg/mL.
With `N#Cc1ccc2cccc(NC(=O)[C@]3(O)CC[C@@H](NCc4cc5c(cn4)OCCO5)CC3)c2n1` [Example 38, t-4-[(2,3-Dihydro-[1,4]dioxino[2,3-c]pyridin-7-ylmethyl)-amino]-1-hydroxy-r-cyclohexanecarboxylic acid (2-cyano-quinolin-8-yl)-amide hydrochloride] the MIC was no more than 2 µg/mL.
Work on `N#Cc1ccc2cccc(NC(=O)[C@]3(O)CC[C@@H](NCc4ccc5c(n4)NC(=O)CO5)CC3)c2n1` [Example 11, 1-Hydroxy-t-4-[(3-oxo-3,4-dihydro-2H-pyrido[3,2-b][1,4]oxazin-6-ylmethyl)-amino]-r-cyclohexanecarboxylic acid (2-cyano-quinolin-8-yl)-amide hydrochloride] yielded an MIC of no more than 2 µg/mL.

Same assay, conditions: versus at least one of these organisms (panel of 8 strains); read-out: MIC
Compound `O=C1CSc2ccc(CN[C@H]3CC[C@H](C(=O)Nc4cccc5cnccc45)CC3)cc2N1` [Example 4, trans-4-[(3-Oxo-3,4-dihydro-2H-benzo[1,4]thiazin-6-ylmethyl)-amino]-cyclohexanecarboxylic acid isoquinolin-5-ylamide] has an MIC of no more than 16 µg/mL.
For `Cc1cnc2c(NC(=O)[C@]3(O)CC[C@@H](NCc4ccc5c(n4)NC(=O)CS5)CC3)cccc2n1` [Example 30, 1-Hydroxy-t-4-[(3-oxo-3,4-dihydro-2H-pyrido[3,2-b][1,4]thiazin-6-ylmethyl)-amino]-r-cyclohexanecarboxylic acid (2-methyl-quinoxalin-5-yl)-amide dihydrochloride], the MIC was no more than 16 µg/mL.

Same assay, conditions: versus some of these organisms (panel of 8 strains); read-out: MIC
`COc1ccc2cccc(NC(=O)[C@]3(O)CC[C@@H](NCc4nc5c(cc4Cl)SCC(=O)N5)CC3)c2n1` [Example 24, t-4-[(7-Chloro-3-oxo-3,4-dihydro-2H-pyrido[3,2-b][1,4]thiazin-6-ylmethyl)-amino]-1-hydroxy-r-cyclohexanecarboxylic acid (2-methoxy-quinolin-8-yl)-amide dihydrochloride] showed an MIC of no more than 2 µg/mL.
Compound `O=C1COc2ccc(CN[C@H]3CC[C@](O)(C(=O)Nc4ccnc5ccncc45)CC3)nc2N1` [Example 29, 1-Hydroxy-t-4-[(3-oxo-3,4-dihydro-2H-pyrido[3,2-b][1,4]oxazin-6-ylmethyl)-amino]-r-cyclohexanecarboxylic acid [1,6]naphthyridin-4-ylamide] has an MIC of no more than 2 µg/mL.
